Data from paper PMC11233932, “Identification of an alternative ligand‐binding pocket in peroxisome proliferator‐activated receptor gamma and its correlated selective agonist for promoting beige adipocyte differentiation” (MedComm, 2024).

Biological target: T1, peroxisome proliferator-activated receptor gamma (PPARγ) (Mus musculus, UniProt P37238)
T1 construct: gene Pparg; LBD, GFP fusion overexpressed in 293T cells
T1 sequence (P37238 238-505 limits assumed): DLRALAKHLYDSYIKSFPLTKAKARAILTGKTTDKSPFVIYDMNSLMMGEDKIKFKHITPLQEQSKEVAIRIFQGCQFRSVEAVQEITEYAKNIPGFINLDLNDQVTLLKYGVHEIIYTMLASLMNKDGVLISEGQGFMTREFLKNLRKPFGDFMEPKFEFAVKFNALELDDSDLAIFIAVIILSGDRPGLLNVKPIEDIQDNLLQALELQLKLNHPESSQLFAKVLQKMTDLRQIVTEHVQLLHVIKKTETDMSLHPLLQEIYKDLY
Test: microscale thermophoresis with GFP-PPARγ LBD in cell lysate; supported by luciferase reporter (partial agonist)
Format: binding

Compound: C[C@H]1O[C@@H](O[C@H]2CC[C@@]3(C)[C@@H](CC[C@]4(C)[C@@H]3C=C[C@]35OC[C@@]6(CCC(C)(C)C[C@H]63)[C@@H](O)C[C@]54C)[C@]2(C)CO)[C@H](O)[C@@H](O[C@@H]2O[C@H](CO)[C@@H](O)[C@H](O)[C@H]2O)[C@H]1O [NJT-2, saikosaponin A]
- Kd: 5.07 µM
